Experimental data reported in patent publication US20020136733A1, “Malaria peptides” (priority 1994, published 2002).
Marks after values point to notes of the source that are not given here. Residues, ends and D or L forms follow the SMILES beside them.

Target: T1, HLA-A2 (Homo sapiens, UniProt P04439, D140Y/D185E/D98H/E176V/E277Q/G131W/G231S/I119V/I121R/I166T/I218V/L300P/L318F/N151K/N90K/P208A/P217A/Q86G/Q94H/R138H/R169H/T345S)
T1 construct: using the untransfected T2 cell line (for HLA-A2); endogenous in cells; host or cells: untransfected T2 cell line
Experiment: HLA assembly assay, binding to HLA-A2 (untransfected T2 cell line)
Conditions: not given
Text: (§1) We have recently described a novel approach to identifying CTL epitopes and potential CTL epitopes in P. falciparum^1. This consisted, in brief, of 1) determining a motif for peptides bound to a particular KLA class I molecules, 2) synthesizing peptides from P. falciparum antigens congruent with this motif, 3) testing whether these peptides bind to that HLA class I allele using a binding assay known as a HLA assembly assay, and 4) testing whether lymphocytes from individuals exposed to malaria could recognise these peptides as epitopes after suitable in vitro restimulation and culture. In that work we identified peptide epitopes and potential peptide epitopes for two HLA class I molecules, HLA-B53 and HLA-B35. Here we extend that work to four further HLA class I molecules: HLA-A2, HLA-B8, HLA-B7 and HLA-B17. 52 peptides are identified that are shown either to be epitopes or potential epitopes for these HLA class I molecules.
(§2) As described previously for identification of HLA-B35 and HLA-B53 epitopes^1, peptides were synthesised to correspond to these four motifs from the primary amino acid sequences of four P. falciparum pre-erythrocytic antigens: CSP, TRAP, LSA-1 and SHEBA. Over one hundred peptides were synthesized. Binding assays^7 were performed on selected peptides to determine whether they bound to HLA-A2, -B7, -B8, or -B58 using the untransfected T2 cell line (for HLA-A2) or the T2 cell line transfected with HLA-B7 (used to assess binding to HLA-B7s), or with HLA-B8 (used to assess binding to HLA-B8), or with HLA-B58 (used to assess binding to HLA-B58).

Molecule	binding to HLA-A2 in the HLA assembly assay
HIFDGDNEI [ls23, LSA-1 peptide, position 1883, HLA-A2]	bind
ILYISFYFI [ls10]	bind
LLMDCSGSI [tr29, TRAP peptide, position 51, HLA-A2]	bound
YISFYFILV [ls11]	bind
GIYKELEDL [ls19, LSA-1 peptide, position 1801, HLA-A2]	bind

Target: T2, HLA-B7 (Homo sapiens, UniProt P01889)
T2 construct: expressed in transfected cells; host or cells: T2 cell line
Experiment: not given
Assay type: binding
Conditions: not given
Text: as §1, §2

T2 sequence (P61769 21-119): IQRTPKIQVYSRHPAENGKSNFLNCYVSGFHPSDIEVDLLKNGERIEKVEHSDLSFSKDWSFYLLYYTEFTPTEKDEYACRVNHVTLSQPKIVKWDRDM
T2 sequence (P01889 25-362): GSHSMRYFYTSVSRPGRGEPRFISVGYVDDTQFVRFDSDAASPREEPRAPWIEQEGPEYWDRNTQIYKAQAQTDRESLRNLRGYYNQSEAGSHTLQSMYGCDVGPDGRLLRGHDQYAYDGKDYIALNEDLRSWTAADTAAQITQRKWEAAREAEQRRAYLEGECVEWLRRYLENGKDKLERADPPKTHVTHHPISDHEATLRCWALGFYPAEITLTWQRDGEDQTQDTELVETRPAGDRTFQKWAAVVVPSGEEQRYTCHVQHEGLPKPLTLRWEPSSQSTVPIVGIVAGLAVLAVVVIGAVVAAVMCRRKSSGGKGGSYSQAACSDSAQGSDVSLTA

Molecule	binding to HLA-B7 in the HLA assembly assay
MPLETQLAI [sh6]	bind

Same assay, conditions: T2 cell line transfected with HLA-B7

Molecule	binding to HLA-B7 in the HLA assembly assay
EPAPFDETL [tr15]	bind
IPSLALMLI [sh1, SHEBA peptide, position 7, HLA-B7]	bind
NPDPNANPNV [cp21]	bind
KPIVQYDNF [ls6, LSA-1 peptide, position 1786, HLA-B7]	bind
GPFMKAVCV [tr21]	bind
IPDSIQDSL [tr13]	bind
NPENPPNPDI [tr6, TRAP peptide, position 348, HLA-B7]	bind

System: HLA matched or autologous B cell line targets pre-pulsed with the peptide
Experiment: CTL chromium release assay with restimulated lymphocytes from malaria-exposed Gambians
Assay type: cell-based, human
Conditions: Gambian adults with HLA-B8 (Z42, Z130, Z80, Z169); 10% or greater specific lysis regarded as significant
Method: Peptides shown to bind to a particular HLA class I allele were tested for CTL recognition in assays using lymphocytes from malaria-exposed Gambians, as described previously^1. A minority of peptides, synthesized to correspond to a peptides binding motif were not tested in the relevant assembly assay but tested only for CTL recognition. Cells from 82 adult Gambians and 53 Gambian children, all exposed to malaria, were used in the course of these studies. The children and adults were HLA typed using cellular or molecular techniques as described previously^1. Peptides were incubated with cells either singly, or in pools as described^1 at concentrations of 10-100 μM. Peptides could either be left with the cells for the duration of restimulation (as reported^1) or washed off after an hour. Cells were cultured for 1-3 weeks before a standard CTL chromium release assay^1 was performed using HLA matched or autologous B cell line targets pre-pulsed with the peptide to be tested. Peptides were tested either singly or in pools for CTL recognition.

Molecule	CTL recognition / lysis of peptide-pulsed target cells
LRKPKHKKL [cp43, circumsporozoite protein peptide, position 134, HLA-B8]	HLA-B8-restricted CTL epitope

Same assay, conditions: asterisk beside the label in the table; HLA class I molecule

Molecule	identified as an epitope for a secondary cytotoxic T lymphocyte response
CC[C@H](C)[C@H](NC(=O)CN)C(=O)N[C@@H](C)C(=O)NCC(=O)NCC(=O)N[C@@H](CC(C)C)C(=O)N[C@@H](C)C(=O)N[C@@H](CC(C)C)C(=O)N[C@@H](CC(C)C)C(=O)O [tr39, GIAGGLALL] (H-GIAGGLALL-OH; N-terminus and C-terminus assumed)	tr39 *
CC[C@H](C)[C@H](NC(=O)[C@H](CCCCN)NC(=O)[C@H](CCC(N)=O)NC(=O)[C@H](CC(C)C)NC(=O)[C@@H](N)Cc1ccc(O)cc1)C(=O)N[C@@H](CCC(N)=O)C(=O)N[C@@H](CC(N)=O)C(=O)N[C@@H](CO)C(=O)N[C@@H](CC(C)C)C(=O)O [cp37, YLQKIQNSL] (H-YLQKIQNSL-OH; N-terminus and C-terminus assumed)	cp37 *
CC(C)C[C@H](NC(=O)[C@H](Cc1ccc(O)cc1)NC(=O)[C@H](CCCCN)NC(=O)[C@@H](NC(=O)[C@H](CC(N)=O)NC(=O)CNC(=O)[C@H](CC(C)C)NC(=O)[C@@H](N)Cc1c[nH]cn1)C(C)C)C(=O)N[C@H](C(=O)O)C(C)C [tr26, HLGNVKYLV] (H-HLGNVKYLV-OH; N-terminus and C-terminus assumed)	tr26 *
CSCC[C@H](N)C(=O)N1CCC[C@H]1C(=O)N[C@@H](CC(N)=O)C(=O)N[C@@H](CC(N)=O)C(=O)N1CCC[C@H]1C(=O)N[C@@H](CC(N)=O)C(=O)N[C@@H](CCCNC(=N)N)C(=O)N[C@@H](CC(N)=O)C(=O)N[C@H](C(=O)O)C(C)C [cp6.2, MPNNPNRNV] (H-MPNNPNRNV-OH; N-terminus and C-terminus assumed)	cp6.2 *
CC(C)C[C@H](NC(=O)[C@H](C)NC(=O)[C@H](CCCCN)NC(=O)[C@H](CCC(=O)O)NC(=O)[C@H](CCCCN)NC(=O)[C@H](CC(N)=O)NC(=O)[C@H](CCCCN)NC(=O)[C@H](CO)NC(=O)[C@H](C)N)C(=O)O [tr42, ASKNKEKAL] (H-ASKNKEKAL-OH; N-terminus and C-terminus assumed)	tr42 *
CSCC[C@H](N)C(=O)N1CCC[C@H]1C(=O)N[C@@H](CC(N)=O)C(=O)N[C@@H](Cc1ccc(O)cc1)C(=O)N1CCC[C@H]1C(=O)N[C@@H](CC(N)=O)C(=O)N[C@@H](CCCNC(=N)N)C(=O)N[C@@H](CC(N)=O)C(=O)N[C@H](C(=O)O)C(C)C [cp6.1, MPNYPNRNV] (H-MPNYPNRNV-OH; N-terminus and C-terminus assumed)	cp6.1 *
CC[C@H](C)[C@H](NC(=O)[C@@H](NC(=O)[C@H](CC(C)C)NC(=O)[C@H](C)NC(=O)[C@H](CCCCN)NC(=O)[C@H](CCC(=O)O)NC(=O)[C@H](CCCCN)NC(=O)[C@H](CC(N)=O)NC(=O)[C@@H](N)CCCCN)[C@@H](C)CC)C(=O)O [tr43, KNKEKALII] (H-KNKEKALII-OH; N-terminus and C-terminus assumed)	tr43 *
CC[C@H](C)[C@H](NC(=O)[C@H](CCCCN)NC(=O)[C@H](CCC(N)=O)NC(=O)[C@H](CC(C)C)NC(=O)[C@@H](N)Cc1ccc(O)cc1)C(=O)N[C@@H](CCCCN)C(=O)N[C@@H](CC(N)=O)C(=O)N[C@@H](CO)C(=O)N[C@@H](CC(C)C)C(=O)O [cp38, YLQKIKNSL] (H-YLQKIKNSL-OH; N-terminus and C-terminus assumed)	cp38 *
CC[C@H](C)[C@H](NC(=O)[C@@H](NC(=O)[C@H](CCCCN)NC(=O)[C@H](CC(C)C)NC(=O)[C@@H](N)Cc1ccc(O)cc1)[C@@H](C)O)C(=O)N[C@@H](CCC(N)=O)C(=O)N[C@@H](CC(N)=O)C(=O)N[C@@H](CO)C(=O)N[C@@H](CC(C)C)C(=O)O [cp36, YLKTIQNSL] (H-YLKTIQNSL-OH; N-terminus and C-terminus assumed)	cp36 *

System: HLA-B8
Experiment: HLA assembly assay, binding to HLA-B8 (T2 cell line transfected with HLA-B8)
Set-up: species or system human
Conditions: not given
Text: as §1
(§3) As described previously for identification of HLA-B35 and HLA-B53 epitopes^1, peptides were synthesised to correspond to these four motifs from the primary amino acid sequences of four P. falciparum pre-erythrocytic antigens: CSP, TRAP, LSA-1 and SHEBA. Over one hundred peptides were synthesized. […]

Molecule	binding to HLA-B8 in the HLA assembly assay
LRKPKHKKL [cp43, circumsporozoite protein peptide, position 134, HLA-B8]	bound

System: HLA-B17
Experiment: HLA assembly assay, binding to HLA-B17 (T2 cell line transfected with HLA-B58)
Set-up: species or system human
Conditions: not given
Text: as §1
The peptide binding motifs of HLA-A2, HLA-B7 and HLA-B8 have been described. For HLA-A2 strong preferences were found at positions 2 and 9 of bound peptides: for leucine, isoleucine and methionine at position 2, and for valine, leucine and isoleucine at position 9^3, 4 For HLA-B7 the preferred residues were proline at position 2 and a hydrophobic residue at position 9. Leucine, isoleucine, valine, alanine, phenylalanine and tryptophan were the hydrophobic residues preferred^5. For HLA-B8 preferred residues were found at positions 3, 5 and 9^6. At positions 3 and 5 lysine or arginine are preferred and at position 9, leucine or isoleucine or valine. The motif for peptides bound to HLA-B17 has not been reported so we determined this exactly as described for HLA-B35^1, using instead of the cell line CIR-B35, the cell line CIR-B58.
as §3

Molecule	binding to HLA-B17 in the HLA assembly assay
CSSVFNVV [cp56, circumsporozoite protein peptide, position 388, HLA-B17]	bind
GSANKPKDEL [cp55, circumsporozoite protein peptide, position 364, HLA-B17]	bind
LSVSSFLFV [cp48, circumsporozoite protein peptide, position 8, HLA-B17]	bind
